Paper PMC9418603 (JID Innovations, 2022)
Entries after “also recorded” stand apart in the source; their conditions may differ. Read-outs that look alike come from different tables or passages of the source. Where no end group is shown, it is not given here. The star is where a group is joined. Biotin = O=C1N[C@H]2[C@H](CS[C@H]2CCCCC(=O)*)N1

Assays:
[1] = format: physicochemical; details: pH 5
[2] = tested on: N-acetylgalactosamine‒specific lectins; details: cited from earlier work
[3] = tested on: LPS-treated dorsal skin of mice; parameters: species or system Female C57BL/6J mice; details: mouse, in vivo
human CLEC10A (CD301) = details: cited from earlier work
TGM2 [4] = target: TGM2 (Cavia cutleri, UniProt P08587); format: biochemical, guinea pig liver
TGM2 [5] = details: cited from earlier work
TGM2 [6] = details: cited from earlier work; remark: listed apart in the source
[7] = tested on: recombinant human siglecs; details: cited from earlier work
[8] = tested on: sialic acid‒specific plant lectins; details: cited from earlier work

Chain of TGM2 (Cavia cutleri, UniProt P08587) (P08587 whole entry): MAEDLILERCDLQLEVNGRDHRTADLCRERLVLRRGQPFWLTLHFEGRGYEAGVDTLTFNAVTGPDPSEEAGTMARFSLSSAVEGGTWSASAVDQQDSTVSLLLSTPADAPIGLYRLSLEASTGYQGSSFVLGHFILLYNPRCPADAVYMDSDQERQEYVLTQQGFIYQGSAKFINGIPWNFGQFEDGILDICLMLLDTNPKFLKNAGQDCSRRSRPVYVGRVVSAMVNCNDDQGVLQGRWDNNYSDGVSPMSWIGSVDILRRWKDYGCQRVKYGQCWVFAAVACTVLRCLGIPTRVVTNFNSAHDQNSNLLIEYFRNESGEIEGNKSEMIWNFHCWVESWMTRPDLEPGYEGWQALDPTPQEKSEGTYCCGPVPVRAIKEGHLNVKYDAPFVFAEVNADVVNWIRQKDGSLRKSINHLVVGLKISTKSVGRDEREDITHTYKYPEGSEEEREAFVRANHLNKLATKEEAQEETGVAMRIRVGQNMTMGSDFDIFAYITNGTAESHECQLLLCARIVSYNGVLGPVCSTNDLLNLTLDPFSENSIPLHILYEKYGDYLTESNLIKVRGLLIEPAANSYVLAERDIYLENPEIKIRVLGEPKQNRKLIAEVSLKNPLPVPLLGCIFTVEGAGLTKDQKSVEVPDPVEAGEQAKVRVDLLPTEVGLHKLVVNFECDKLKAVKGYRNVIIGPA

[(NQHTPR-GGGS)2K2]K-NH2 [sv6D]
positive charge [1]: 12 | binding to other N-acetylgalactosamine‒specific lectins [2]: bind specifically to human CLEC10A ([Hoober, 2020]) and other N-acetylgalactosamine‒specific lectins | mean epidermal thickness [3]: 17.1 μm | repair of structural disruption of the epidermis (general statement) [3]: structural disruption of the epidermis was repaired | binding to human CLEC10A (human CLEC10A (CD301)): binds with high specificity and avidity to recombinant and native human CLEC10A (CD301); also recorded: bind specifically to human CLEC10A | Km relative to svL4 (TGM2 [4]): higher Km values | TGM2 functional substrate / cross-linking to lysine (TGM2 [4]): the enzyme can use glutamine from the arms; also recorded: functional substrates of transglutaminase (TGM) 2 | TGM2 substrate activity (TGM2 [4]): poor substrates in vitro | TGM2 substrate activity with aged enzyme (TGM2 [4]): gained the ability to use sv6D

carbobenzoxy-L-glytaminylglycine
Km (TGM2 [5]): 22000 µM

Biotin-TVQQEL
Km (TGM2 [5]; read-out: Km of standard peptide): 1 µM

C[C@@H]1C[C@H]2[C@@H]3CCC4=CC(=O)C=C[C@]4(C)[C@@]3(F)[C@@H](O)C[C@]2(C)[C@@]1(O)C(=O)CO [dexamethasone]
induction of TGM2 expression (TGM2 [6]): Expression of TGM2 is induced

NCCCCN [putrescine]
acceptor amine (second substrate) activity (TGM2 [5]): active second substrates

[(NPSHPLSG-GGGS)2K]2K-NH2 [svH1C]
binding to recombinant human siglecs [7]: recombinant human siglecs | effectiveness, topical (general statement) [3]: not effective when applied topically | epidermal disruption / integrity of skin surface [3]: not when applied topically | epidermal morphology / thickness [3]: ineffective in restoring normal epidermal morphology | epidermal disruption / recovery, lesions ([3]; sc): effective when injected subcutaneously; also recorded: lesions were absent | epidermal thickness ([3]; sc): most areas of the skin contained a thickened epidermis | neutrophils in dermis ([3]; sc): abundant neutrophils in the dermis | binding to sialic acid‒specific plant lectins [8]: binds to sialic acid‒specific plant lectins

[Ca+2] [Ca^2+, calcium ion]
activation constant, KA (TGM2 [5]): 6.9 mM

[(VQATQSNQHTPR-GGGS)2K2]K-NH2 [svL4]
positive charge [1]: 12 | binding to other N-acetylgalactosamine‒specific lectins [2]: bind specifically to human CLEC10A ([Hoober, 2020]) and other N-acetylgalactosamine‒specific lectins | epidermal disruption / integrity of skin surface [3]: restored the integrity of the skin surface, with no epidermal disruptions | epidermal morphology / thickness [3]: uniformly of normal thickness; also recorded: normal morphology with thin epidermis; also recorded: the epidermis had returned to a normal morphology | mean epidermal thickness [3]: 16.1 μm | neutrophils (Ly6G^+) in dermis [3]: nearly free of neutrophils; also recorded: essentially free of neutrophils; also recorded: neutrophils were absent | neutrophils in the dermis (summary statement) [3]: loss of neutrophils in the dermis | repair of structural disruption of the epidermis (general statement) [3]: repair of areas of structural disruption of the epidermis; also recorded: structural disruption of the epidermis was repaired | thickness of the epidermis (summary statement) [3]: reduction of the thickness of the epidermis | density of dermal collagen ([3]; sc): an increased density of dermal collagen was noted | epidermal disruption / recovery, lesions ([3]; sc): no recovery occurred | epidermal thickness ([3]; sc): did not reduce epidermal thickness | binding to human CLEC10A (human CLEC10A (CD301)): binds with high specificity and avidity to recombinant and native human CLEC10A (CD301); also recorded: bind specifically to human CLEC10A | TGM2 functional substrate / cross-linking to lysine (TGM2 [4]): the enzyme can use glutamine from the arms; also recorded: functional substrates of transglutaminase (TGM) 2 | TGM2 substrate activity with aged enzyme (TGM2 [4]): lost over half of the activity | Km (TGM2 [4]; pH 7.5): 7 µM

[(VQATQS-GGGS)2K2]K-NH2 [svC1]
mean epidermal thickness [3]: 15.5 μm | reduction of epidermal thickness [3]: active in reducing the thickness of the epidermis | binding to human CLEC10A (human CLEC10A (CD301)): does not bind to CLEC10A | Km relative to svL4 (TGM2 [4]): higher Km values | TGM2 functional substrate / cross-linking to lysine (TGM2 [4]): the enzyme can use glutamine from the arms | TGM2 substrate activity (TGM2 [4]): poor substrates in vitro | TGM2 substrate activity with aged enzyme (TGM2 [4]): to a lesser extent, svC1 as substrates

NCCCCNCCCN [spermidine]
acceptor amine (second substrate) activity (TGM2 [5]): active second substrates
